Type in all cases: biochemical
The target of one assay is T1, KDR (Homo sapiens, UniProt P35968).
T1 construct: expressed in transfected cells; host or cells: CHO cells
Nature of the assay: Inhibitory activity against KDR (VEGF-R2), in vitro data of Examples 170 and 207. Particulars: 10 μM, read-out: KDR inhibition at 10 μM. In a few lines:
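KDR tyrosine phosphorylation detected by luminescence after overnight 4° C capture of 20 μg lysate protein with PY20:AP antibody. Lysates came from cells given compound for 2 h at 37° C, then final 20 ng/ml VEGF for 5 min; compound-free medium as control.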

For another assay, the target named is T2, FGFR3 (K650E) (Homo sapiens, UniProt P22607, K650E).
T2 construct: amino acids 411-806 of the cytoplasmic domain of human FGFR-3, N-terminally fused to GST; made in house; host or cells: Sf9 insect cells (baculovirus)
T2 sequence (P22607 411-806 K650E): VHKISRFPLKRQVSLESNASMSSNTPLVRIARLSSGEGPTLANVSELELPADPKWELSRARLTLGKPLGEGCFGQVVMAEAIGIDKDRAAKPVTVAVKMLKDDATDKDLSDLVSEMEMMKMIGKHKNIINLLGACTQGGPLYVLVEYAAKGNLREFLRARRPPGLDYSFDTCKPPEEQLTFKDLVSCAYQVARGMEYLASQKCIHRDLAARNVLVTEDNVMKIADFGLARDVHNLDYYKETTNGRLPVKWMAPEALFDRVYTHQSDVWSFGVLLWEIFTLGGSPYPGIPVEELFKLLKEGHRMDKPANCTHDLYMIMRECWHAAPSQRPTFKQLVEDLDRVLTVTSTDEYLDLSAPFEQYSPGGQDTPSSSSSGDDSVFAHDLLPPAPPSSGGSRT
Nature of the assay: Recombinant GST-FGFR-3-K650E tyrosine kinase assay (33P into poly(Glu,Tyr)). Particulars: 10 μM.

In another assay the target is c-Abl (Homo sapiens, UniProt P00519). Kind of assay: Inhibitory activity against c-Abl (Example 207). Particulars: Examples 171 to 206.
c-Abl, sequence (P00519 whole entry): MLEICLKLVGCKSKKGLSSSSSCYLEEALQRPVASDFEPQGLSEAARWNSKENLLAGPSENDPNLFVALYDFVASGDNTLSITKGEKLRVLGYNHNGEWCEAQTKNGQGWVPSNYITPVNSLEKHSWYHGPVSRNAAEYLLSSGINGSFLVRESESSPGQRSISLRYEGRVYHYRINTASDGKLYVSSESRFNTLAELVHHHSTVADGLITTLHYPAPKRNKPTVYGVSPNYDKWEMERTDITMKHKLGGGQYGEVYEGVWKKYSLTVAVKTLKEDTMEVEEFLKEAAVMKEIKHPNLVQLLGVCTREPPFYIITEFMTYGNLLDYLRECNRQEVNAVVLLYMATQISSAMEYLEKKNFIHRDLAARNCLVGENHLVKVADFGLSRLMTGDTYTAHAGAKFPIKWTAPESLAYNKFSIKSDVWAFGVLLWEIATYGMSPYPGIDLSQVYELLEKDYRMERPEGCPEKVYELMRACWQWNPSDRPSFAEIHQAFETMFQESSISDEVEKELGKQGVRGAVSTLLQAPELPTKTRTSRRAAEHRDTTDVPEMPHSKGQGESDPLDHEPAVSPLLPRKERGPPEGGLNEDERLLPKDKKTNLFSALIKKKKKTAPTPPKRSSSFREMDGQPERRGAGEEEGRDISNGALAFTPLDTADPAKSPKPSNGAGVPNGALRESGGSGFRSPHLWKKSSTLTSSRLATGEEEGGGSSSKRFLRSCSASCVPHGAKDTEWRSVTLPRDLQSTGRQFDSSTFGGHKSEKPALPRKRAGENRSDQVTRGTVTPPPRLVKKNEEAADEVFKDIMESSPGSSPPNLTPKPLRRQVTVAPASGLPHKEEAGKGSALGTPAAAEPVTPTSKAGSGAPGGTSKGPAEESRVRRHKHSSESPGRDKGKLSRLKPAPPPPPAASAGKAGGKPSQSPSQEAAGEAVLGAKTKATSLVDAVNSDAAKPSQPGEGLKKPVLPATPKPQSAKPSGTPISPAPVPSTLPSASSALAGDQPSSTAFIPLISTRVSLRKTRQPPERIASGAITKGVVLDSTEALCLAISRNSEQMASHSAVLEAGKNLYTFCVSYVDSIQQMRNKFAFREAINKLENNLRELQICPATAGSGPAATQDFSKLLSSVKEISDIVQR
Another assay addresses T3, Tek (Homo sapiens, UniProt Q02763).
T3 construct: amino acids 773-1124 of the cytoplasmic kinase domain of human Tek, N-terminally fused to GST; made in house; host or cells: Sf9 insect cells (baculovirus)
Nature of the assay: Recombinant GST-Tek (Tie-2) tyrosine kinase assay (33P into poly(Glu,Tyr)). Particulars: Examples 1 to 169. In a few lines:
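Read-out is filter-bound 33P in poly(Glu,Tyr) 4:1 (10 μg/mL) after 30 min at ambient temperature with 4.0 μM ATP. Enzyme: 150 ng human GST-Tek (aa 773-1124) from insect cells, in Tris pH 7.5 with Mn2+/Mg2+ and vanadate. IC50 fitted linearly over four concentrations, usually 0.01-10 μM.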

The mark [1] stands for this setting: Examples 171 to 206, read-out: FGFR3 inhibition at 10 μM.
The mark [2] stands for this setting: Examples 1 to 169, read-out: FGFR3 (K650E) inhibition at 10 μM.

Structures are written as SMILES. Where two headings read alike, the source gives them in different places.

T1 sequence (P35968 20-1356): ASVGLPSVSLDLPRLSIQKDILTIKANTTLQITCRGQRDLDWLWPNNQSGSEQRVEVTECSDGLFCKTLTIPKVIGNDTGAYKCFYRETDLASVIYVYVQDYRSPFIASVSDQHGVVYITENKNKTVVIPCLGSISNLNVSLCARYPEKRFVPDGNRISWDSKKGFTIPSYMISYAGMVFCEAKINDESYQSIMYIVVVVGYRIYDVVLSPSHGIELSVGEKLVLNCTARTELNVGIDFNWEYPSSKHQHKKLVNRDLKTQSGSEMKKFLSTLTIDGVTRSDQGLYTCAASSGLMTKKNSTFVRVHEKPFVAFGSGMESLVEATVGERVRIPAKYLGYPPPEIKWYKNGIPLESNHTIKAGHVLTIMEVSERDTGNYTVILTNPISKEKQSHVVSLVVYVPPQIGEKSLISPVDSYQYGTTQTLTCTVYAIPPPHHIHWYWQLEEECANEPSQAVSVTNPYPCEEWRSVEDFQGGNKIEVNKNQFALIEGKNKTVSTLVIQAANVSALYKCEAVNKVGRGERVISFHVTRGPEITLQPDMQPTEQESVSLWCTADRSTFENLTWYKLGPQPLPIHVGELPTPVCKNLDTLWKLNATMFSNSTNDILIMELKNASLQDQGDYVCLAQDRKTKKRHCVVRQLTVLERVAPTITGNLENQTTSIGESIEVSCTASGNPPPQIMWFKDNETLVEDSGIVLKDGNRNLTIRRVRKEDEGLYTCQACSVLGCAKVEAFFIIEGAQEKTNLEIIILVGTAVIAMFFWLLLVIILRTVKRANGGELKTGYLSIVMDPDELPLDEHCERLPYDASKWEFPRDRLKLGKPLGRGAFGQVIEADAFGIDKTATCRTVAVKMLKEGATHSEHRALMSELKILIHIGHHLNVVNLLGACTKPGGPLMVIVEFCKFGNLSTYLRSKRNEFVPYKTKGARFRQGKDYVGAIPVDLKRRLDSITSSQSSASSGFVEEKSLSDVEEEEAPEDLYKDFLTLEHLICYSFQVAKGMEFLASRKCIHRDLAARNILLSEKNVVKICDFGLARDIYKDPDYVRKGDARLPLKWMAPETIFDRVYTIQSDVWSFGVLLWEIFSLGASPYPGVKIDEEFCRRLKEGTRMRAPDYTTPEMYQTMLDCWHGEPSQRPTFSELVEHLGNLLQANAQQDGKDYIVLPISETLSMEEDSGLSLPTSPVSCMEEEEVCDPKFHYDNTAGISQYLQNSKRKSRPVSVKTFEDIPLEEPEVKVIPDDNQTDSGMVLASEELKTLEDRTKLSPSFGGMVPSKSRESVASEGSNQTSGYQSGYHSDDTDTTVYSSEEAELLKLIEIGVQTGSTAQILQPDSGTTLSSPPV
T3 sequence (Q02763 773-1124): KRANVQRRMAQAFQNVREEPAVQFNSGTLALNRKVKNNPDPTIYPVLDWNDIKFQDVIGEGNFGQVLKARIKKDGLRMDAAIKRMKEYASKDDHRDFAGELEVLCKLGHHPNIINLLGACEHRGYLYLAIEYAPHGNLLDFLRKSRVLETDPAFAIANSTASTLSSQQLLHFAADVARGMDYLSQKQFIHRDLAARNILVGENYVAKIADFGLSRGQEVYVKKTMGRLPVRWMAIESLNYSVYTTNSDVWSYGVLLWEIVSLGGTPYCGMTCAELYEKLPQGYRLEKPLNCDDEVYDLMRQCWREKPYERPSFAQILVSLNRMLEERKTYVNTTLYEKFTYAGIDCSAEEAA

For the compound `Cc1ccc(NC(=O)c2cccc(C(F)(F)F)c2)cc1NC(=O)N(Cc1cccs1)c1cc(Nc2ccc(N3CCN(C)CC3)cc2)ncn1` [Example 193, N-[4-Methyl-3-(3-{6-[4-(4-methyl-piperazin-1-yl)-phenylamino]-pyrimid-in-4-yl}-3-thiophen-2-ylmethyl-ureido)-phenyl]-3-trifluoromethyl-benzamide], the inhibition at 10 µM was 87 to 100% on KDR (Examples 171 to 206), 56 to 98% on FGFR3 (K650E) (setting [1]) and 79 to 100% on c-Abl.

On to `CNc1cc(NC(=O)Nc2cc(NC(=O)c3cccc(C(F)(F)F)c3)ccc2C)ncn1` [Example 172, N-{4-Methyl-3-[3-(6-methylamino-pyrimidin-4-yl)-ureido]-phenyl}-3-trifluoromethyl-benzamide], for which the inhibition at 10 µM was 87 to 100% on KDR (Examples 171 to 206), 56 to 98% on FGFR3 (K650E) (setting [1]) and 79 to 100% against c-Abl.

On to `Cc1ccc(NC(=O)c2cccc(C(F)(F)F)c2)cc1NC(=O)Nc1cc(Nc2ccc(N3CCN(C)CC3)cc2)ncn1` [Example 174, N-[4-Methyl-3-(3-{6-[4-(4-methyl-piperazin-1-yl)-phenylamino]-pyrimidin-4-yl}-ureido)-phenyl]-3-trifluoromethyl-benzamide], for which the inhibition at 10 µM on KDR (Examples 171 to 206) is 87 to 100%; at FGFR3 (K650E) (setting [1]) it was 56 to 98%; against c-Abl, 79 to 100%.

Consider `Cc1ccc(NC(=O)c2cccc(C(F)(F)F)c2)cc1NC(=O)Nc1cc(Nc2ccc(OCCN3CCOCC3)cc2)ncn1` [Example 179, N-[4-Methyl-3-(3-{6-[4-(2-morpholin-4-yl-ethoxy)-phenylamino]-pyrimidin-4-yl}-ureido)-phenyl]-3-trifluoromethyl-benzamide], for which the inhibition at 10 µM lay in the range of 87 to 100% at KDR (Examples 171 to 206), 56 to 98% at FGFR3 (K650E) (setting [1]) and 79 to 100% against c-Abl.

As for `CC(=O)Nc1cc(N(C)C(=O)Nc2cc(C(=O)Nc3ccc(CN4CCN(C)CC4)c(C(F)(F)F)c3)ccc2C)ncn1` [Example 205, 3-[3-(6-Acetylamino-pyrimidin-4-yl)-3-methyl-ureido]-4-methyl-N-[4-(4-methyl-piperazin-1-ylmethyl)-3-trifluoromethyl-phenyl]-benzamide], the inhibition at 10 µM at KDR (Examples 171 to 206) fell in the range of 87 to 100%; on FGFR3 (K650E) (setting [1]), 56 to 98%; against c-Abl, 79 to 100%.

`COC(=O)Nc1cc(N(C)C(=O)Nc2cc(C(=O)Nc3ccc(CN4CCN(C)CC4)c(C(F)(F)F)c3)ccc2C)ncn1` [Example 204, [6-(1-Methyl-3-{2-methyl-5-[4-(4-methyl-piperazin-1-ylmethyl)-3-trifluoromethyl-phenylcarbamoyl]-phenyl}-ureido)-pyrimidin-4-yl]-carbamic acid methyl ester]: the inhibition at 10 µM lay in the range of 87 to 100% on KDR (Examples 171 to 206), 56 to 98% at FGFR3 (K650E) (setting [1]) and 79 to 100% at c-Abl.

For the compound `Cc1ccc(NC(=O)c2cccc(C(F)(F)F)c2)cc1NC(=O)N(C)c1cc(Nc2cccc(N3CCN(C)CC3)c2)ncn1` [Example 188, N-[4-Methyl-3-(3-methyl-3-{6-[3-(4-methyl-piperazin-1-yl)-phenylamino]-pyrimidin-4-yl}-ureido)-phenyl]-3-trifluoromethyl-benzamide], the results for the inhibition at 10 µM at KDR (Examples 171 to 206), at FGFR3 (K650E) (setting [1]) and against c-Abl were 87 to 100%, 56 to 98% and 79 to 100%, respectively.

As to `Cc1ccc(NC(=O)c2cccc(C(F)(F)F)c2)cc1NC(=O)N(C)c1cc(Nc2ccccc2)ncn1` [Example 181, N-{4-Methyl-3-[3-methyl-3-(6-phenylamino-pyrimidin-4-yl)-ureido]-phenyl}-3-trifluoromethyl-benzamide], the figures for the inhibition at 10 µM on KDR (Examples 171 to 206), on FGFR3 (K650E) (setting [1]) and on c-Abl were 87 to 100%, 56 to 98% and 79 to 100%, respectively.

With `COc1cc(NC(=O)c2ccc(CN3CCN(C)CC3)c(C(F)(F)F)c2)cc(NC(=O)N(C)c2cc(N)ncn2)c1` [Example 199, N-{3-[3-(6-Amino-pyrimidin-4-yl)-3-methyl-ureido]-5-methoxy-phenyl}-4-(4-methyl-piperazin-1-ylmethyl)-3-trifluoromethyl-benzamide], the inhibition at 10 µM on KDR (Examples 171 to 206) fell in the range of 87 to 100%; at FGFR3 (K650E) (setting [1]), 56 to 98%; at c-Abl it was 79 to 100%.

Regarding `COc1cc(NC(=O)c2ccc(CN3CCN(C)CC3)c(C(F)(F)F)c2)cc(NC(=O)N(C)c2cc(Nc3ccccc3)ncn2)c1` [Example 200, N-{3-Methoxy-5-[3-methyl-3-(6-phenylamino-pyrimidin-4-yl)-ureido]-phenyl}-4-(4-methyl-piperazin-1-ylmethyl)-3-trifluoromethyl-benzamide], the inhibition at 10 µM on KDR (Examples 171 to 206) lay in the range of 87 to 100%; on FGFR3 (K650E) (setting [1]) it was 56 to 98%; against c-Abl, 79 to 100%.

As for `Cc1ccc(NC(=O)c2ccc(CN3CCN(C)CC3)c(C(F)(F)F)c2)cc1NC(=O)N(C)c1cc(Nc2ccccc2)ncn1` [Example 195, N-{4-Methyl-3-[3-methyl-3-(6-phenylamino-pyrimidin-4-yl)-ureido]-phenyl}-4-(4-methyl-piperazin-1-ylmethyl)-3-trifluoromethyl-benzamide], the inhibition at 10 µM on KDR (Examples 171 to 206) was in the range of 87 to 100%; at FGFR3 (K650E) (setting [1]) it was 56 to 98%; at c-Abl, 79 to 100%.

For `Cc1ccc(NC(=O)c2cccc(C(F)(F)F)c2)cc1NC(=O)N(C)c1cc(Nc2cccc(OCCN3CCN(C)CC3)c2)ncn1` [Example 185, N-{4-Methyl-3-[3-methyl-3-(6-{3-[2-(4-methyl-piperazin-1-yl)-ethoxy]-phenylamino}-pyrimidin-4-yl)-ureido]-phenyl}-3-trifluoromethyl-benzamide], the inhibition at 10 µM on KDR (Examples 171 to 206) lay within 87 to 100%; at FGFR3 (K650E) (setting [1]), 56 to 98%; against c-Abl, 79 to 100%.

Take `CCN(CC)CCOc1ccc(Nc2cc(N(C)C(=O)Nc3cc(OC)cc(OC)c3Cl)ncn2)cc1` [Example 53, 3-(2-Chloro-3,5-dimethoxy-Phenyl)-1-{6-[4-(2-diethylamino-ethoxy)-phenylamino]-pyrimidin-4-yl}-1-methyl-urea]: the inhibition at 10 µM at KDR (Examples 1 to 169) lay within 67 to 100%; on FGFR3 (K650E) (setting [2]) it was 27 to 100%; on Tek, 12 to 100%.

In the case of `CCN(CC)CCOc1ccc(Nc2cc(N(C)C(=O)Nc3c(Cl)c(OC)cc(OC)c3Cl)ncn2)cc1` [Example 152, 3-(2,6-Dichloro-3,5-dimethoxy-phenyl)-1-{6-[4-(2-diethylamino-ethoxy)-phenylamino]-pyrimidin-4-yl}-1-methyl-urea], the results for the inhibition at 10 µM at KDR (Examples 1 to 169), on FGFR3 (K650E) (setting [2]) and on Tek were 67 to 100%, 27 to 100% and 12 to 100%, respectively.

Regarding `COc1ccc(OC)c(NC(=O)Nc2cc(Nc3ccc(N4CCN(C)CC4)cc3)ncn2)c1` [Example 12, 1-(2,5-Dimethoxy-phenyl)-3-{6-[4-(4-methyl-piperazin-1-yl)-phenyl-amino]-pyrimidin-4-yl}-urea], the inhibition at 10 µM fell in the range of 67 to 100% at KDR (Examples 1 to 169), 27 to 100% on FGFR3 (K650E) (setting [2]) and 12 to 100% at Tek.

For the compound `CN1CCN(c2cccc(Nc3cc(NC(=O)Nc4cc(C(F)(F)F)cc(C(F)(F)F)c4)ncn3)c2)CC1` [Example 21, 1-(3,5-Bis-trifluoromethyl-phenyl)-3-{6-[3-(4-methyl-piperazin-1-yl)-phenylamino]-pyrimidin-4-yl}-urea], the results for the inhibition at 10 µM at KDR (Examples 1 to 169), at FGFR3 (K650E) (setting [2]) and at Tek were 67 to 100%, 27 to 100% and 12 to 100%, respectively.

(Values after patent US8552002B2 (Novartis AG, priority 2004, dated 2013).)
